Laboratory results taken from article PMC5430599, “Antiplasmodial dihetarylthioethers target the coenzyme A synthesis pathway in Plasmodium falciparum erythrocytic stages” (Malaria Journal, 2017).
Where two headings read alike, the source gives them in different places.

Tests used:
[1] = system: Plasmodium falciparum parasites (3D7 strain); test: Coenzyme A rescue assay (imaging-based growth inhibition, with or without 0.8 mM CoA); type: cell-based; settings: for IC50 shift with CoA supplementation: IC50 CoA / IC50 solvent; for IC50-ratio (CoA/solvent): IC50 with 0.8 mM CoA / IC50 solvent, threshold 5× significant; for IC50: Plasmodium falciparum
Protocol: Plasmodium falciparum parasites (3D7 strain) were grown in RPMI 1640 supplemented with 25 mM HEPES, 5 mg/mL Albumax II, and 0.37 mM hypoxanthine. Parasites were subjected to two rounds of sorbitol synchronization before undergoing compound treatment. Ring stage parasites were exposed to the experimental compounds alone, or in combination with 0.8 mM coenzyme A (CoA) in 384-wells imaging microplates (CellCarrier, PerkinElmer), as previously described. […] Puromycin 5 µM and untreated solvent were used as in-plate positive and negative controls, respectively. Samples were dissolved in DMSO to a final assay DMSO concentration of 0.4%. […] All sample and control wells contained the same final amounts of solvents. Plates were incubated for 72 h at 90% N2, 5% CO2, 5% O2, then parasites were stained with 2-(4-amidinophenyl)-1H-indole-6-carboxamidine (DAPI), and imaged using an Opera QEHS micro-plate confocal imaging system (PerkinElmer) with 405 nm excitation and 450/50 emission filter, using a 20× water immersion objective. Images were analysed as previously described, to obtain normalized % inhibition data, which were then used to calculate IC50 values, through a four parameter logistic curve fitting in GraphPad Prism v.6. The experiment was carried out in two independent biological replicates, each consisting of two technical replicates. Dose–response curves are illustrated in the Additional file 4.

THP-1 cells = test: Cytotoxicity assay: human THP-1 cell line (Alamar Blue); type: cell-based; settings: for IC50: Homo sapiens, THP-1, cytotoxicity, 48 h
Protocol: THP-1 cells were passed into fresh THP-1 culture medium. Cells were harvested by centrifugation (250×g, 10′, 4 °C), washed three times with RPMI 1640 medium, and diluted to 8 × 10^5 cells/mL. The cells were aliquoted in triplicate (125 μL/well) into 96-well flat-bottom plates containing compounds diluted in complete medium (125 μL/well, containing 0.01% DMSO). THP-1 cells in wells containing medium plus 0.01% DMSO served as negative controls. Cells were incubated with test compounds at 37 °C and 5% CO2 for 48 h prior to the addition of 10% Alamar Blue (25 μL/well). After an additional 4 h the fluorescence was read (λex = 544 nm, λem = 590 nm) using a microplate reader (Fluoroskan Ascent FL, Thermo Fisher Scientific, Waltham, MA, USA). Results were analysed using Prism 4 (GraphPad Software Inc., La Jolla, CA, USA). Experiments were performed in triplicate and were repeated at least twice.

[2] = 3D7, 72 h, 0.8 mM CoA (rescue), 72 h, read-out: IC50 [µM], Pf3D7 + 0.8 mM CoA
[3] = 3D7, 72 h, no CoA (solvent, non-rescue), 72 h, read-out: IC50 [µM], Pf3D7 + solvent

SMILES | IC50 shift with CoA supplementation [1] [fold] | IC50-ratio (CoA/solvent) [1] | IC50 [1, 2] [µM] | IC50 [1, 3] [µM] | IC50 (THP-1 cells) [µM] | IC50 ([1]; 3D7, no CoA, read-out: IC50, 3D7 strain) [µM] | fold higher antiplasmodial activity ([1]; compared to 8c) [fold] | selectivity THP-1 vs 3D7 parasites (THP-1 cells; IC50 THP-1 / IC50 3D7) [fold] | selectivity toward human cell lines (THP-1 cells; human cell lines vs 3D7) [fold]
c1csc(Sc2ncnc3sccc23)n1 [Compound 8d] | 67 | 67.3 | 2.6 ± 0.4 | 0.039 ± 0.001 | 27.5 |  |  |  | 
c1ccc2[nH]c(Sc3ncnc4sccc34)nc2c1 [Compound 8g] |  | 7.23 | 0.531 ± 0.007 | 0.0734 ± 0.0022 | 16.5 |  |  |  | 
c1cnc2[nH]c(Sc3ncnc4sccc34)nc2c1 [Compound 8k] |  | 7.11 | 1.06 ± 0.03 | 0.149 ± 0.021 | 28 |  |  |  | 
c1coc(Sc2ncnc3sccc23)n1 [Compound 8e] | 34 | 34.5 | 2.6 ± 0.4 | 0.0747 ± 0.021 | 33.6 | 0.075 | 17 | 450 | > 100
Cn1ccnc1Sc1ncnc2sccc12 [Compound 8c] |  |  | 2.31 ± 0.17 | 1.3 | > 300 |  |  |  | 
Nc1nnc(Sc2ncnc3sccc23)s1 [Compound 8f] | 117 | 117 | > 11 | 0.096 ± 0.006 | 11 |  |  |  | 
c1coc(-c2nnc(Sc3ncnc4sccc34)o2)c1 [Compound 3a] |  | 16.3 | 4.61 ± 0.15 | 0.283 ± 0.073 | 6.13 |  |  |  | 
